Laboratory results reported in patent US20080255055A1, “Use of Derivatives of Dipeptides for the Manufacture of a Medicament for the Treamtent of Microbial Infections” (NEOBIOTICS AB, priority 2004, published 2008).
In brackets after ≈: the same amount, converted by molar mass. Non-standard residues stand in square brackets, D forms with d. dPhg = N[C@@H](C(=O)O)c1ccccc1; Phg = N[C@H](C(=O)O)c1ccccc1; code Z = not defined here; Orn = NCCC[C@H](N)C(=O)O; Mpa = O=C(O)CCS

Key:
Streptococcus: group C = assay: Agar well diffusion; conditions: 40 ul of 1 mg/ml in DMSO
lethal strept challenge = assay: Protection against lethal strept challenge; assay type: in vivo; conditions: mouse
labial herpes = assay: Topical application to beginning labial herpes outbreak; assay type: in vivo; conditions: Cp1 in softening cream, 0.2 ml solution (0.1 g/l) on the lip of a person; performed twice
poliovirus type 1 = assay type: cell-based; conditions: GMK AH 1 cells, 1 PFU/cell, 48 hours; Cp1 0.4 mM in 1% DMSO
Streptococcus: group G = assay: Agar well diffusion; conditions: 40 ul of 1 mg/ml in DMSO
S. aureus = assay: MIC by broth dilution; assay type: cell-based; conditions: growth media without DMSO, solubility problems; true MIC might be lower
Method: (§1) The in vitro antibacterial activity of drugs is commonly estimated by testing their minimal inhibitory (MIC) and bactericidal (MBC) concentrations.
(§2) MIC/MBC determinations were performed by broth dilution according to established procedures, well known for a person skilled in the art.

GAS = assay: MIC by broth dilution; assay type: cell-based, group A Streptococci; conditions: growth media without DMSO, solubility problems; true MIC might be lower
Method: as §1, §2

S. pneumoniae = assay: Agar well diffusion; conditions: 40 ul of 1 mg/ml in DMSO
Solubility = assay type: physicochemical
[1] = tested on: Staphylococci incl. multi-resistant MRSA; assay: Agar well diffusion; conditions: for antibacterial effect, Staphylococci incl. multi-resistant MRSA: agar well diffusion, 40 ul of 1 mg/ml in DMSO; for growth inhibition of approximately 100 strain of MRSA: clinical isolates, several with additional antibiotic resistance markers
cysteine proteases = assay: Protease inhibitory activity; assay type: biochemical
[2] = tested on: α-haemolytic Streptococci; assay: Agar well diffusion; conditions: 40 ul of 1 mg/ml in DMSO
Streptococcus: group A = assay: Agar well diffusion; conditions: 40 ul of 1 mg/ml in DMSO
[3] = tested on: E. coli and other Gram-negatives; assay: Agar well diffusion; conditions: for antibacterial effect, E. coli and other Gram-negatives: agar well diffusion, 40 ul of 1 mg/ml in DMSO
[4] = tested on: Aspergillus niger ATCC 16404; assay: Antifungal MIC in Sabouraud broth; assay type: cell-based; conditions: 25° C., 7 days
Method: (§3) The minimal inhibitory concentration (MIC) was determined using a method with Sabouraud broth (Becton Dickinson) and an initial inoculum 10^3-10^4 cfu/ml. Polypropylene 96-well plates (Nunc) were incubated at 25° C. for 48 h (for Candida albicans ATCC 10231) or 7 days (for Aspergillus niger ATCC 16404). The MIC was taken as the lowest drug concentration at which noticeable growth was inhibited. The experiments were performed in duplicate.

[5] = tested on: Candida albicans ATCC 10231; assay: Antifungal MIC in Sabouraud broth; assay type: cell-based; conditions: 25° C., 48 h
Method: as §3

L. monocytogenes = assay: Agar well diffusion; conditions: 40 ul of 1 mg/ml in DMSO
Streptococcus: group B = assay: Agar well diffusion; conditions: 40 ul of 1 mg/ml in DMSO
[6] = tested on: CNS incl. resistant and multiresistant MRSE; assay: Agar well diffusion; conditions: 40 ul of 1 mg/ml in DMSO
HSV-1 F = assay: Virus inhibition analysis and plaque counting test in GMK AH 1 cells; assay type: cell-based, Herpes Simplex Virus; conditions: 10 PFU/cell, 48 hours, Cp1 0.4 mM in 1% DMSO, Acyclovir 1.0 mM
bacteria = assay: Anti-bacterial activity (tables of particularly interesting compounds); assay type: cell-based; design: key: + indicates that the compound show effects

CC(C)CC(NC(=O)C(CCCN=C(N)N)NC(=O)OCc1ccccc1)C(=O)N[C@H](CNC(=O)/C=C/c1ccccc1)C(C)C (stereo in doubt) [Cp1, (2S)-2-[(N^α-Benzyloxycarbonyl-arginyl-leucyl)-amino]-1-trans-cinnamoylamino-3-methylbutane]
antibacterial effect, Streptococcus: group C (Streptococcus: group C): + | protective capacity for lethal strept challenge (lethal strept challenge): strong protective capacity | time after which symptoms of beginning labial herpes outbreak was gone (labial herpes): Cp1 was added to a softening cream and 0.2 ml solution (0.1 g/l) was applied to an area of a beginning labial herpes outbreak on the lip of a person. After 3-4 hours the symptoms was gone. The experiment was performed twice. | Polio plaques (poliovirus type 1): 2.6 × 10^5 | antibacterial effect, Streptococcus: group G (Streptococcus: group G): + | MIC for S. aureus (S. aureus): approximately 16 mg/L | MIC for GAS (GAS): approximately 16 mg/L | antibacterial effect, S. pneumoniae (S. pneumoniae): + | solubility in DMSO (Solubility; DMSO): soluble in DMSO to high concentrations | solubility in water (Solubility; water): less soluble in water | antibacterial effect, Staphylococci incl. multi-resistant MRSA [1]: + | growth inhibition of approximately 100 strain of MRSA [1]: strongly inhibited in their growth | protease inhibitory activity (cysteine proteases): devoid of any detectable protease inhibitory activity | antibacterial effect, α-haemolytic Streptococci [2]: − | antibacterial effect, Streptococcus: group A (Streptococcus: group A): + | activity against gram-negative bacteria [3]: low or no activity | antibacterial effect, E. coli and other Gram-negatives [3]: − | MIC Aspergillus niger ATCC 16404 [4]: 64 µg/mL (≈ 101 µM) | MIC Candida albicans ATCC 10231 [5]: 32 µg/ml | antibacterial effect, L. monocytogenes (L. monocytogenes): + | antibacterial effect, Streptococcus: group B (Streptococcus: group B): + | antibacterial effect, CNS incl. resistant and multiresistant MRSE [6]: + | HSV-1 plaques (HSV-1 F): 1.0 × 10^3

CC(=O)NC(Cc1ccccc1)C(=O)NCC(NC(=O)C(CC(C)C)NC(=O)C(CCCNC(=N)N)NC(=O)OCc1ccccc1)C(C)C (stereo not shown) [[AcPhe^5]Cp1]
antibacterial effect, Streptococcus: group C (Streptococcus: group C): + | antibacterial effect, Streptococcus: group G (Streptococcus: group G): + | antibacterial effect, S. pneumoniae (S. pneumoniae): + | antibacterial effect, Staphylococci incl. multi-resistant MRSA [1]: + | growth inhibition of approximately 100 strain of MRSA [1]: strongly inhibited in their growth | antibacterial effect, α-haemolytic Streptococci [2]: − | antibacterial effect, Streptococcus: group A (Streptococcus: group A): + | antibacterial effect, E. coli and other Gram-negatives [3]: − | MIC Aspergillus niger ATCC 16404 [4]: 256 µg/mL (≈ 368 µM) | MIC Candida albicans ATCC 10231 [5]: 512 µg/mL (≈ 737 µM) | antibacterial effect, L. monocytogenes (L. monocytogenes): + | antibacterial effect, Streptococcus: group B (Streptococcus: group B): + | antibacterial effect, CNS incl. resistant and multiresistant MRSE [6]: +

Mpa-Phe-Arg-Leu-Val-Phe-Cys-NH2 ([Mpa]FRLVFC-NH2; cysteine pairing not given here)
Activity Anti-bacterial (bacteria): +

Z-Arg-Leu-Val-Phe-NH2 ({code Z}-RLVF-NH2; reading uncertain; also: printed as Z-Arg-Leu-Val-Phe-NH2)
Activity Anti-bacterial (bacteria): +

Z-Arg-Leu-Val-cinnamoylamide
Activity Anti-bacterial (bacteria): +

cyclo(FRLVF[Orn]LV)
Activity Anti-bacterial (bacteria): +

cyclo(F[Orn]LVF[Orn]LV)
Activity Anti-bacterial (bacteria): +

cyclo(Phe-Arg-Leu-Val-Phe-Arg-Leu-Val) (FRLVFRLV; cyclic; printed: Phe-Arg-Leu-Val-Phe-Arg-Leu-Val)
Activity Anti-bacterial (bacteria): +

cyclo(Tyr-Arg-Leu-Val-Tyr-Arg-Leu-Val) (YRLVYRLV; cyclic; printed: Tyr-Arg-Leu-Val-Tyr-Arg-Leu-Val)
Activity Anti-bacterial (bacteria): +

cyclo([Phg]RLV[Phg]RLV)
Activity Anti-bacterial (bacteria): +

cyclo([dPhg]RLV[dPhg]RLV)
Activity Anti-bacterial (bacteria): +

cyclo([dY]RLV[dY]RLV)
Activity Anti-bacterial (bacteria): +
